Assay results taken from patent publication US12466856B2, “Echinocandin analogues and preparation method therefor” (SHANGHAI SENHUI MEDICINE CO., LTD., priority 2019, dated 2025).
Where two headings read alike, the source gives them in different places. Starred links: 1 amine or outer side, 2 acyl side, 3 side chain; linkers in the order of their positions; H or OH if unused. Positions of bridges follow the written chain, without caps; N, C: chain ends. Non-standard residues stand in square brackets, D forms with d. Residues, ends and D or L forms follow the SMILES beside them. *: point of attachment. Orn(4R-OH,5R-OCH2CH2NMe3+) = C[N+](C)(C)CCO[C@@H](N[*:3])[C@H](O)C[C@H](N[*:1])C(=O)[*:2]; hTyr(3S-OH,4S-OH) = N[C@H](C(=O)O)[C@H](O)[C@@H](O)c1ccc(O)cc1; X2 = CCCCCCc1ccc(-c2ccc(-c3ccc(C(=O)*)cc3)cc2)cc1; X3 = CCCCCNc1ccc(-c2ccc(-c3ccc(C(=O)*)cc3)cc2)cc1; Pro(3S-OH,4S-Me) = C[C@H]1CN[C@H](C(=O)O)[C@H]1O; Hyp = O=C(O)[C@@H]1C[C@@H](O)CN1

What was measured:
Assay type in all cases: cell-based
[1] = tested on: Candida tropicalis (amphotericin-resistant strain) ATCC 200956; test: microbe, parasite or virus in culture; details: Candida tropicalis, ATCC200956, read-out: MIC, Candida tropicalis (amphotericin-resistant strain) ATCC 200956
Description: (§1) After a test compound was serially diluted, an MIC (minimum inhibitory concentration) assay was performed on the standard Candida strain and an MEC (minimum effective concentration) assay on the standard Aspergillus strain. The MIC assay was performed according to the guidelines of the Clinical and Laboratory Standards Institute (CLSI M27-A3) and the MEC assay according to the guidelines of the Clinical and Laboratory Standards Institute (CLSI M38-A2).
(§2) The frozen strain was passaged at least twice, and a single colony was picked and resuspended in normal saline or sterile water in a tube. The suspension was vortexed and adjusted to 0.5 McF (1×10^6 to 5×10^6 CFU/mL) using a spectrophotometer at wavelength 530 nm. The suspension was 50-fold diluted with normal saline and then 20-fold diluted with 1×RPMI 1640 broth (1×10^3 to 5×10^3 CFU/mL). 10 μL of the suspension was applied to an SDA plate for colony counting, with a range from about 10 to 50 single colonies.
(§3) At this time, the bacterium concentration in each well should be 0.5×10^3 to 2.5×10^3 CFU/mL.
(§4) For echinocandin drugs, Aspergillus was incubated at 28° C. for 21-26 h, and then the MEC results were read.
(§5) Yeast-type fungi: A disposable sealing film was applied to the 96-well plate, and the mixture was well mixed by shaking. Observation was performed through a plate reader with the naked eye. Comparisons were made to the growth control, and the minimum compound concentration corresponding to ≥50% growth inhibition was defined as MIC. Pictures were taken and saved using an automatic plate reader.

[2] = tested on: Candida glabrata ATCC 36583; test: MIC assay (CLSI M27-A3), Candida glabrata ATCC 36583; details: Nakaseomyces glabratus
Description: as §1, §2, §3, §4, §5

[3] = tested on: Candida albicans (azole drug-resistant strain) R357; test: MIC assay (CLSI M27-A3), Candida albicans azole drug-resistant strain R357; details: Candida albicans, read-out: MIC, Candida albicans (azole drug-resistant strain) R357
Description: as §1, §2, §3, §4, §5

[4] = tested on: Candida albicans ATCC 44858; test: MIC assay (CLSI M27-A3), Candida albicans ATCC 44858; details: Candida albicans
Description: as §1, §2, §3, §4, §5

[5] = tested on: Candida albicans ATCC 90028; test: MIC assay (CLSI M27-A3), Candida albicans ATCC 90028; details: Candida albicans
Description: as §1, §2
At this time, the bacterium concentration in each well should be 0.5×10^3 to 2.5×10^3 CFU/mL. […]
as §5

[6] = tested on: Candida albicans (azole drug-resistant strain) R358; test: MIC assay (CLSI M27-A3), Candida albicans azole drug-resistant strain R358; details: Candida albicans, read-out: MIC, Candida albicans (azole drug-resistant strain) R358
Description: as §1, §2, §3, §4, §5

[7] = ATCC36583, second batch, read-out: MIC, Candida glabrata ATCC 36583
[8] = ATCC44858, read-out: MIC, Candida albicans ATCC 44858
[9] = ATCC90028, second batch, 24 h, 35° C., read-out: MIC, Candida albicans ATCC 90028
[10] = ATCC90028, second batch, + 50% human serum, read-out: MIC, Candida albicans + 50% human serum ATCC 90028
[11] = ATCC36583, read-out: MIC, Candida glabrata ATCC 36583
[12] = ATCC90028, 24 h, read-out: MIC, Candida albicans ATCC 90028
[13] = ATCC90028, read-out: MIC, Candida albicans + 50% human serum ATCC 90028
[14] = ATCC44858, second batch, read-out: MIC, Candida albicans ATCC 44858

Structure (SMILES): CCCCCOc1ccc(-c2ccc(-c3ccc(C(=O)N[C@H]4C[C@@H](O)[C@@H](O[C@@H](C)C[N+](C)(C)C)NC(=O)[C@@H]5[C@@H](O)[C@@H](C)CN5C(=O)[C@H]([C@@H](C)O)NC(=O)[C@H]([C@H](O)[C@@H](O)c5ccc(O)cc5)NC(=O)[C@@H]5C[C@@H](O)CN5C(=O)[C@H]([C@@H](C)O)NC4=O)cc3)cc2)cc1 [Example 24]
- MIC [1]: 0.125 µg/mL
- MIC [2, 7]: 0.25 µg/mL
- MIC ([3]; second batch): 0.5 µg/mL
- MIC [4, 8]: 0.125 µg/mL
- MIC [5, 9]: 0.25 µg/mL
- MIC [5, 10]: 0.25 µg/mL
- MIC ([6]; second batch): 0.0625 µg/mL

Structure (SMILES): CCCCCCc1ccc(-c2ccc(-c3ccc(C(=O)N[C@H]4C[C@@H](O)[C@@H](OCC[N+](C)(C)C)NC(=O)[C@@H]5[C@@H](O)[C@@H](C)CN5C(=O)[C@H]([C@@H](C)O)NC(=O)[C@H]([C@H](O)[C@@H](O)c5ccc(O)cc5)NC(=O)[C@@H]5C[C@@H](O)CN5C(=O)[C@H]([C@@H](C)O)NC4=O)cc3)cc2)cc1 [Example 16] (X2-[Orn(4R-OH,5R-OCH2CH2NMe3+)]T[Hyp][hTyr(3S-OH,4S-OH)]T[Pro(3S-OH,4S-Me)]; lactam 1-C)
- MIC [1]: 0.25 µg/mL
- MIC [2, 11]: 0.25 µg/mL
- MIC [3]: 0.25 µg/mL
- MIC [4, 8]: 0.25 µg/mL
- MIC [5, 12]: 0.25 µg/mL
- MIC [5, 13]: 0.5 µg/mL
- MIC [6]: 0.25 µg/mL

Structure (SMILES): CCCCCOc1ccc(-c2ccc(-c3ccc(C(=O)N[C@H]4C[C@@H](O)[C@@H](OC[C@@H](C)[N+](C)(C)C)NC(=O)[C@@H]5[C@@H](O)[C@@H](C)CN5C(=O)[C@H]([C@@H](C)O)NC(=O)[C@H]([C@H](O)[C@@H](O)c5ccc(O)cc5)NC(=O)[C@@H]5C[C@@H](O)CN5C(=O)[C@H]([C@@H](C)O)NC4=O)cc3)cc2)cc1 [Example 23]
- MIC [1]: 0.25 µg/mL
- MIC [2, 7]: 0.25 µg/mL
- MIC ([3]; second batch): 0.25 µg/mL
- MIC [4, 14]: 0.25 µg/mL
- MIC [5, 9]: 0.25 µg/mL
- MIC [5, 10]: 0.25 µg/mL
- MIC ([6]; second batch): 0.125 µg/mL

Structure (SMILES): CCCCCNc1ccc(-c2ccc(-c3ccc(C(=O)N[C@H]4C[C@@H](O)[C@@H](OCC[N+](C)(C)C)NC(=O)[C@@H]5[C@@H](O)[C@@H](C)CN5C(=O)[C@H]([C@@H](C)O)NC(=O)[C@H]([C@H](O)[C@@H](O)c5ccc(O)cc5)NC(=O)[C@@H]5C[C@@H](O)CN5C(=O)[C@H]([C@@H](C)O)NC4=O)cc3)cc2)cc1 [Example 17] (X3-[Orn(4R-OH,5R-OCH2CH2NMe3+)]T[Hyp][hTyr(3S-OH,4S-OH)]T[Pro(3S-OH,4S-Me)]; lactam 1-C)
- MIC [1]: 0.25 µg/mL
- MIC [2, 11]: 0.5 µg/mL
- MIC [3]: 0.5 µg/mL
- MIC [4, 8]: 0.25 µg/mL
- MIC [5, 12]: 0.25 µg/mL
- MIC [5, 13]: 0.25 µg/mL
- MIC [6]: 0.25 µg/mL

Structure (SMILES): CCCCCOc1ccc(-c2ccc(-c3ccc(C(=O)N[C@H]4C[C@@H](O)[C@@H](OC[C@H](C)[N+](C)(C)C)NC(=O)[C@@H]5[C@@H](O)[C@@H](C)CN5C(=O)[C@H]([C@@H](C)O)NC(=O)[C@H]([C@H](O)[C@@H](O)c5ccc(O)cc5)NC(=O)[C@@H]5C[C@@H](O)CN5C(=O)[C@H]([C@@H](C)O)NC4=O)cc3)cc2)cc1 [Example 22]
- MIC [1]: 0.25 µg/mL
- MIC [2, 7]: 0.5 µg/mL
- MIC ([3]; second batch): 0.5 µg/mL
- MIC [4, 14]: 0.25 µg/mL
- MIC [5, 9]: 0.25 µg/mL
- MIC [5, 10]: 0.25 µg/mL
- MIC ([6]; second batch): 0.25 µg/mL

Structure (SMILES): CCCCCOc1ccc(-c2ccc(-c3ccc(C(=O)N[C@H]4C[C@@H](O)[C@@H](O[C@H]5CC[N+](C)(C)C5)NC(=O)[C@@H]5[C@@H](O)[C@@H](C)CN5C(=O)[C@H]([C@@H](C)O)NC(=O)[C@H]([C@H](O)[C@@H](O)c5ccc(O)cc5)NC(=O)[C@@H]5C[C@@H](O)CN5C(=O)[C@H]([C@@H](C)O)NC4=O)cc3)cc2)cc1 [Example 26]
- MIC [1]: 0.25 µg/mL
- MIC [2, 7]: 0.25 µg/mL
- MIC ([3]; second batch): 0.5 µg/mL
- MIC [4, 14]: 0.25 µg/mL
- MIC [5, 9]: 0.25 µg/mL
- MIC [5, 10]: 0.25 µg/mL
- MIC ([6]; second batch): 0.25 µg/mL

Structure (SMILES): CCCCCOc1ccc(-c2ccc(-c3ccc(C(=O)N[C@H]4C[C@@H](O)[C@@H](O[C@@H]5CC[N+](C)(C)C5)NC(=O)[C@@H]5[C@@H](O)[C@@H](C)CN5C(=O)[C@H]([C@@H](C)O)NC(=O)[C@H]([C@H](O)[C@@H](O)c5ccc(O)cc5)NC(=O)[C@@H]5C[C@@H](O)CN5C(=O)[C@H]([C@@H](C)O)NC4=O)cc3)cc2)cc1 [Example 25]
- MIC [1]: 0.25 µg/mL
- MIC [2, 7]: 0.25 µg/mL
- MIC ([3]; second batch): 0.25 µg/mL
- MIC [4, 14]: 0.125 µg/mL
- MIC [5, 9]: 0.25 µg/mL
- MIC [5, 10]: 0.125 µg/mL
- MIC ([6]; second batch): 0.25 µg/mL
